Data: BindingDB's records for patent US10513534 (IDENIX PHARMACEUTICALS LLC; CENTRE NATIONAL DE LA RECHERCHE …, 2019)

What follows are compounds tested against T1, Genome polyprotein (Hepatitis C virus genotype 1b (isolate Japanese), UniProt P26662) (assay: not given).

SMILES | IC50 [nM]
C[C@@]1(Cl)[C@H](O)[C@@H](COP(=O)(O)OP(=O)(O)OP(=O)(O)O)O[C@H]1n1ccc2c(N)ncnc21 [US10513534, Compound 403] | < 250
C[C@@]1(Cl)[C@H](O)[C@@H](COP(=O)(O)OP(=O)(O)OP(=O)(O)O)O[C@H]1n1cnc2c(N)nc(Cl)nc21 [US10513534, Compound 404] | > 10000
C[C@@]1(Cl)[C@H](O)[C@@H](COP(=O)(O)OP(=O)(O)OP(=O)(O)O)O[C@H]1n1cnc2c(=O)[nH]c(N)nc21 [US10513534, Compound 405] | < 250
C[C@@]1(Cl)[C@H](O)[C@@H](COP(=O)(O)OP(=O)(O)OP(=O)(O)O)O[C@H]1n1cc(F)c2c(N)ncnc21 [US10513534, Compound 407] | < 250

These compounds were tested against T1, Genome polyprotein (assay: HCV Polymerase Enzyme Assay).
From the text: Test compounds in the form of nucleoside triphosphates were examined for inhibitory activity against purified HCV polymerase in a standard assay. Bacterial expression constructs encoding the approximately 65 kDa HCV genotype 1b NS5B protein were used to generate recombinant HCV polymerases (with a deletion of the 21 carboxy terminal amino acids). Both the wild-type genotype 1b protein and protein containing the S282T mutation were expressed and purified for use in the enzymatic activity assay.The enzymatic activity assay measured the inhibitory effect of increasing concentrations of test compound on the incorporation of α-[33P]-labeled nucleotide into trichloroacetic acid-precipitable material. Recombinant polymerase and synthetic RNA template were combined in reaction buffer containing ribonucleoside triphosphates, α-[33P]-labeled nucleotide and eight concentrations of test compound in three-fold dilutions. Reactions were incubated for two hours at 30° C.Reactions were terminated by the addition of ice-cold trichloroacetic acid and sodium pyrophosphate to promote precipitation of newly-synthesized ribonucleic acid. Precipitable material from the reactions was collected by filtration onto 96-well filter plates, washed extensively with water, and quantified by liquid scintillation.The inhibitory activity of test compounds was determined by fitting results to dose-response curves using XLfit software.

SMILES | IC50 [µM]
C[C@@]1(Cl)[C@H](O)[C@@H](COP(=O)(O)OP(=O)(O)OP(=O)(O)O)O[C@H]1n1ccc(=O)[nH]c1=O [US10513534, Compound 401] | < 0.25
C[C@@]1(Cl)[C@H](O)[C@@H](COP(=O)(O)OP(=O)(O)OP(=O)(O)O)O[C@H]1n1ccc(N)nc1=O [US10513534, Compound 402] | 5.5
C[C@@]1(Cl)[C@H](O)[C@@H](COP(=O)(O)OP(=O)(O)OP(=O)(O)O)O[C@H]1n1cnc2c(N)nc(Cl)nc21 [US10513534, Compound 404] | > 10
C[C@@]1(Cl)[C@H](O)[C@@H](COP(=O)(O)OP(=O)(O)OP(=O)(O)O)O[C@H]1n1cnc2c(N)ncnc21 [US10513534, Compound 406] | < 0.25
